These are literature values, as cited in patent US20040040468A1, “Drier for printing ink and printing ink containing drier” (DAINIPPON INK AND CHEMICALS, INC., priority 2002, published 2004).

For this data set, the system named is rat. The conditions noted are these: from database REGISTRY OF TOXIC EFFECTS OF CHEMICAL SUBSTANCES

Take Cobalt naphthenate: the “LD50 (rat, oral administration)” value was 3900 mg/kg.

As for Manganese naphthenate, the “LD50 (rat, oral administration)” value is 6000 mg/kg.
